Values joined by “and” are separate entries in the source; they are usually repeats but may differ in a detail not shown here. Identical values can stand only once.
Each compound was assayed against MAPK14 (UniProt Q16539) (assay: Inhibition of MAPK14 Kinase Activity).
MAPK14, sequence (Q16539 whole entry, looked up): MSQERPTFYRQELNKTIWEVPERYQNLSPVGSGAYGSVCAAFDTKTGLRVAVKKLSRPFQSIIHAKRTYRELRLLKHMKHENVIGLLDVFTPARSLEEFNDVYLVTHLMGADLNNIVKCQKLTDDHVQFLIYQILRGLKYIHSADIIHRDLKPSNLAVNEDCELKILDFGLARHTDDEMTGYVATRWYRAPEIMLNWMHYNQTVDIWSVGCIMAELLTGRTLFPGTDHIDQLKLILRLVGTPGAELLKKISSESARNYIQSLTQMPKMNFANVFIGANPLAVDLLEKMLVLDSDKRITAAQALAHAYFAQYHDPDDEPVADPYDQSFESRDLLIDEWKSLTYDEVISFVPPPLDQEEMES

IC50	Structure (SMILES)
7 nM	Nc1nccc(-c2[nH]c(C3CCNCC3)nc2-c2cccc(C(F)(F)F)c2)n1
549 nM	COc1cccc(-c2nc(-c3ccccc3)[nH]c2-c2ccncc2)c1
977 nM	N#Cc1ccc(-c2nc(-c3ccccc3)[nH]c2-c2ccncc2)cc1
120 nM	CNc1nccc(-c2[nH]c(-c3ccccc3)nc2-c2ccccc2)n1
85 nM	FC(F)(F)c1cccc(-c2nc(-c3ccccc3)[nH]c2-c2ccncc2)c1
138 nM	Clc1cc(Cl)cc(-c2nc(-c3ccccc3)[nH]c2-c2ccncc2)c1
47 nM	Clc1ccc(-c2nc(-c3ccccc3)[nH]c2-c2ccncc2)cc1
28 nM	Clc1ccc(-c2nc(-c3ccccc3)[nH]c2-c2ccncc2)cc1Cl
38 nM	COc1ccc(CNc2nccc(-c3[nH]c(-c4ccccc4)nc3-c3ccccc3)n2)cc1
0.9 nM	C[C@@H](Nc1nccc(-c2[nH]c(C3CCNCC3)nc2-c2cccc(C(F)(F)F)c2)n1)c1ccccc1
38 nM	Nc1nccc(-c2[nH]c(-c3ccccc3)nc2-c2ccccc2)n1
199 nM	FC(F)(F)c1ccc(-c2nc(-c3ccccc3)[nH]c2-c2ccncc2)cc1
0.7 nM and 0.1 nM	C[C@H](Nc1nccc(-c2[nH]c(C3CCNCC3)nc2-c2cccc(C(F)(F)F)c2)n1)c1ccccc1
8 nM	Fc1ccc(-c2nc(C3CCNCC3)[nH]c2-c2ccncc2)cc1
1000 nM	c1ccc(-c2ccc(-c3nc(-c4ccccc4)[nH]c3-c3ccncc3)cc2)cc1
128 nM	Clc1cccc(-c2nc(-c3ccccc3)[nH]c2-c2ccncc2)c1
707 nM	c1ccc(-c2nc(-c3ccccc3)c(-c3ccncn3)[nH]2)cc1
1410 nM	Oc1ccc(-c2nc(-c3ccccc3)[nH]c2-c2ccncc2)cc1
151 nM	Clc1ccccc1-c1nc(-c2ccccc2)[nH]c1-c1ccncc1
489 nM	Fc1cccc(-c2nc(-c3ccccc3)[nH]c2-c2ccncc2)c1
181 nM	c1ccc(-c2nc(-c3ccccc3)c(-c3ccncc3)[nH]2)cc1
7 nM	COc1ccc(CNc2nccc(-c3[nH]c(C4CCNCC4)nc3-c3cccc(C(F)(F)F)c3)n2)cc1
70 nM	Fc1ccc(-c2nc(C3CCCCC3)[nH]c2-c2ccncc2)cc1
169 nM	Fc1ccc(-c2nc[nH]c2-c2ccncc2)cc1
2090 nM	CC(C)c1nc(-c2ccccc2)[nH]c1-c1ccncc1
141 nM	Oc1cccc(-c2nc(-c3ccccc3)[nH]c2-c2ccncc2)c1
301 nM	COc1ccc(-c2nc(-c3ccccc3)[nH]c2-c2ccncc2)cc1

Reference: the Kinase Knowledgebase extract (Sharma et al. 2016)
